The record followed here is US12441726B2, “Compounds and uses thereof” (Foghorn Therapeutics Inc., priority 2020, dated 2025).

The target of one experiment is BRG-1 (Homo sapiens, UniProt P51532). In words: ATPase catalytic activity assay (ADP-Glo), BRG-1. The note with it: for Emax: 1 h, read-out: BRG1 Max % Inhibition, ADP-Glo, 30 nM BRG-1, 400 μM ATP. (In general: In ADP-Glo the light output rises with the ADP produced.)
The target in the next experiment is BRM (Homo sapiens, UniProt P51531). In words: ATPase catalytic activity assay (ADP-Glo), BRM. The following applies: 30 nM BRM, 400 μM ATP; for IC50: BRM ATPase: IC50 (uM).
Sequence of BRM (P51531 whole entry): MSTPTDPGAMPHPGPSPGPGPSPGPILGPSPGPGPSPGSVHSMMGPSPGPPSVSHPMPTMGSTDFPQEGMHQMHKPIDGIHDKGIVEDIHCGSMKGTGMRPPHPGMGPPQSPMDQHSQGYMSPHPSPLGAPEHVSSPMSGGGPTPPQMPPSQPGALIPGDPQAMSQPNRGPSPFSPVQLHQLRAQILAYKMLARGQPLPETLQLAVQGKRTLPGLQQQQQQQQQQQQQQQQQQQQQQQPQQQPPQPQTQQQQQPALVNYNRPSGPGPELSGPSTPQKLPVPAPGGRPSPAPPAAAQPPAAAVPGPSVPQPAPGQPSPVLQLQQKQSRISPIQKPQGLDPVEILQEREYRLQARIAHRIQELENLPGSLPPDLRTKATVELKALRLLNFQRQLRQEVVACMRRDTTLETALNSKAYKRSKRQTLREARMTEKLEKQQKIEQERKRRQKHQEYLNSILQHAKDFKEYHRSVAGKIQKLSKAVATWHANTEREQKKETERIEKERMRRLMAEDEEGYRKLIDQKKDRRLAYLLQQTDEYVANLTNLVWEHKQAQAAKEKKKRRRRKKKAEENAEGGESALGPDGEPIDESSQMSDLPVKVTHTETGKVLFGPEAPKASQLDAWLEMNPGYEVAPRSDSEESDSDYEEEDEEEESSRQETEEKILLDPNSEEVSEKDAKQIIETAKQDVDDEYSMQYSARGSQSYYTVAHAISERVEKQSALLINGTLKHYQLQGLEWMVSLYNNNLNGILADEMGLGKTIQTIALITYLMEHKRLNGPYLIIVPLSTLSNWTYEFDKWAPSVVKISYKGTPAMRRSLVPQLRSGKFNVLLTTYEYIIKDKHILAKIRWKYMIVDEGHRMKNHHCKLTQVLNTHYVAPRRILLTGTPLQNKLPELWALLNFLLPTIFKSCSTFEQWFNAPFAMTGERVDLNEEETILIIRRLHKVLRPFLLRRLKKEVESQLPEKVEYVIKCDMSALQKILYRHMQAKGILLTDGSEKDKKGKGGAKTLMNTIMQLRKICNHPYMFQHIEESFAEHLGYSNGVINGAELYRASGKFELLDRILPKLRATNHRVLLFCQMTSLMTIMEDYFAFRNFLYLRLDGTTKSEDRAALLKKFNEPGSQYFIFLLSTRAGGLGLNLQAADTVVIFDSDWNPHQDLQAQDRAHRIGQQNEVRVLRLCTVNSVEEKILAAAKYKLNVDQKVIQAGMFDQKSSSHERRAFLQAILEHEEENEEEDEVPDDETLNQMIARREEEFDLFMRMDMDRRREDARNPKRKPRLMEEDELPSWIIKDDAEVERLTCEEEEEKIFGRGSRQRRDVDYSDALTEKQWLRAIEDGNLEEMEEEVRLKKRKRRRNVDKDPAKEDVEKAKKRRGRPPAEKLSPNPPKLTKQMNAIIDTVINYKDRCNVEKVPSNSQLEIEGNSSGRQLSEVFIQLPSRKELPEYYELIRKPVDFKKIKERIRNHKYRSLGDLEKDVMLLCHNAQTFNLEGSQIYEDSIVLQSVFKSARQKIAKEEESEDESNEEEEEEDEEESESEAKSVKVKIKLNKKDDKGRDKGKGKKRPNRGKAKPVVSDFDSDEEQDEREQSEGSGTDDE

A value given as a limit tells only on which side of the number the result lay.

Sequence of BRG-1 (P51532 whole entry): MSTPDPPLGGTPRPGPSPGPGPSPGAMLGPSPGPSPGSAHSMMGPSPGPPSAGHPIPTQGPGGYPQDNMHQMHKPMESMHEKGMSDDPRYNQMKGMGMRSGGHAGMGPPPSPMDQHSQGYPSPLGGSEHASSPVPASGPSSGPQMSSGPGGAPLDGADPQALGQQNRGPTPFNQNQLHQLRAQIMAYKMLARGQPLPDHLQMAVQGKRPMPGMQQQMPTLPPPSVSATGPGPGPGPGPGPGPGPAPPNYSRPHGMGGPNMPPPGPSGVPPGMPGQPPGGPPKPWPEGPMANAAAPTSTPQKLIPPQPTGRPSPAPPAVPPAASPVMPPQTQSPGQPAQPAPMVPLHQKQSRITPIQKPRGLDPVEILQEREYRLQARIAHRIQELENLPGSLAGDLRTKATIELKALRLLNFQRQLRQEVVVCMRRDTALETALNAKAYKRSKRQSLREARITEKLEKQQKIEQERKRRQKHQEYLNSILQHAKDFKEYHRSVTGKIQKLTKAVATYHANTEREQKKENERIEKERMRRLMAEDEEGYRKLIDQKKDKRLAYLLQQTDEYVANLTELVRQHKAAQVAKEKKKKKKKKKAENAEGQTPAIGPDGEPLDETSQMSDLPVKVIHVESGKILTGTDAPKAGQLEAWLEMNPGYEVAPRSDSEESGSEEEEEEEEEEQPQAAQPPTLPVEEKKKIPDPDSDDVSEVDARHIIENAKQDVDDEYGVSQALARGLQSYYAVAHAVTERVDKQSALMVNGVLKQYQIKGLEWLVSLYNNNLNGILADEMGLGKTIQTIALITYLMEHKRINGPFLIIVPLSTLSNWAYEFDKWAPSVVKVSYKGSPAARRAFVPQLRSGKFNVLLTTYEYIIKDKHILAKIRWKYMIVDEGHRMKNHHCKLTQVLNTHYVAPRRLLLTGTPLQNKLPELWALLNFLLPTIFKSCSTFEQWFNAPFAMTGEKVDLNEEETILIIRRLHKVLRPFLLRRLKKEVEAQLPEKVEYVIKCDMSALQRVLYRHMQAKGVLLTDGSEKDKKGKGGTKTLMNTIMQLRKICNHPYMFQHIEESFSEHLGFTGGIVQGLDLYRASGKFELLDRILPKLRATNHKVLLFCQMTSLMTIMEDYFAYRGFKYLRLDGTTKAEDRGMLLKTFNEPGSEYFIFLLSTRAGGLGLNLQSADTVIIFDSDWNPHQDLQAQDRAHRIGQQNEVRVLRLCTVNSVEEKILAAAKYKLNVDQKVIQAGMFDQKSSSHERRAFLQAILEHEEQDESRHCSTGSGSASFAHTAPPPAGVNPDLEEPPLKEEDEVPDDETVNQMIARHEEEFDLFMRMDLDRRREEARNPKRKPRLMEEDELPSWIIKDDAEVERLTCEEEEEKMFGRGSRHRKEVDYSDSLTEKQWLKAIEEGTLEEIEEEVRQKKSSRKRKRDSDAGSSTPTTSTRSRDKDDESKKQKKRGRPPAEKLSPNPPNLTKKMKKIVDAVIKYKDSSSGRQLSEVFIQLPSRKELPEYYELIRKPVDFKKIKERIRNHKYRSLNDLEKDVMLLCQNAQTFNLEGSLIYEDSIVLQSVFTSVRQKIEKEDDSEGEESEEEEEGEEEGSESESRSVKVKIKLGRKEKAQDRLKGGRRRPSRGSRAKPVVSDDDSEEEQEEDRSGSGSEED

Turning to `C[C@@]1(C#N)COCc2ccc(C(=O)NCc3cc4nc(-c5ccccn5)sc4cn3)cc21` [Compound 440], at BRG-1, the IC50 (commonly the concentration that inhibits the measured activity by half) is more than 1000 nM and the Emax stood at 40%. Also, on BRM, the “BRM Max % Inhibition” value is recorded as 88% and the 50% inhibitory concentration (IC50) fell in the range of 0.1 to 0.5 µM.
Taken in the same sequence, the figures for `C[C@@]1(C#N)COCc2ccc(C(=O)NCc3cc4nc(-c5ccnc(C6CCOCC6)n5)ccc4cn3)cc21` [Compound 397] were 500 to 1000 nM, 66%, 93% and 0.1 to 0.5 µM.
`COC(=O)c1cccc(C#Cc2ccnc(CNC(=O)c3ccc4c(c3)[C@](C)(C#N)CCO4)c2)c1` [Compound 24]: at BRG-1, the 50% inhibitory concentration (IC50) is more than 1000 nM and the Emax amounted to 65%. Besides, at BRM, the “BRM Max % Inhibition” value is on record as 94% and the IC50 was in the range of 0.1 to 0.5 µM.
Taken in the same sequence, the figures for `COC(=O)N1CCC=C(c2ccc3cnc(CNC(=O)c4ccc5c(c4)[C@](C)(F)COC5)cc3n2)C1` [Compound 345] were more than 1000 nM, 25%, 81% and 0.1 to 0.5 µM.
The corresponding values for `C[C@@]1(C#N)COCc2c(F)cc(C(=O)NCc3cc4nc(-c5ccccc5)ccc4cn3)cc21` [Compound 400] are 500 to 1000 nM, 68%, 96% and 0.1 to 0.5 µM.
The corresponding values for `COc1nn(CC(F)F)cc1-c1ccc2cnc(CNC(=O)c3ccc4c(c3)[C@](C)(C#N)COC4)cc2n1` [Compound 202] are 500 to 1000 nM, 67%, 94% and less than 0.1 µM.
Consider `C[C@@]1(C#N)COc2ccc(C(=O)NCc3cc4nc(-c5ccccc5)ccc4cn3)cc21` [Compound 99], for which, on BRG-1, the IC50 is more than 1000 nM and the Emax was found to be 22%. Further, at BRM, the “BRM Max % Inhibition” value amounted to 63% and the IC50 is more than 1 µM.
Taken in the same sequence, the figures for `C[C@@]1(C#N)COCc2ccc(C(=O)NCc3cc4cc(-n5cc(F)c(N6CCC6)n5)ccc4nn3)cc21` [Compound 142] were 100 to 500 nM, 88%, 98% and less than 0.1 µM.
Taken in the same sequence, the figures for `C[C@@]1(F)COCc2ccc(C(=O)NCc3cc4nc(-c5cccc(C6CC6)n5)ccc4nn3)cc21` [Compound 240] were 100 to 500 nM, 89%, 101% and less than 0.1 µM.
The corresponding values for `C[C@@]1(F)COCc2ccc(C(=O)NCc3cc4nc(-c5cccc(N=S(C)(C)=O)n5)ccc4cn3)cc21` [Compound 273] are 500 to 1000 nM, 64%, 98% and 0.1 to 0.5 µM.
For the compound `C[C@@]1(C#N)COCc2ccc(C(=O)NCc3cc(C#Cc4ccccc4)c(F)cn3)cc21` [Compound 20], at BRG-1, the IC50 was more than 1000 nM and the Emax came out at 41%. Moreover, at BRM, the “BRM Max % Inhibition” value was 83% and the IC50 fell in the range of 0.5 to 1 µM.
Taken in the same sequence, the figures for `COC(=O)N1CCC(C#Cc2ccnc(CNC(=O)c3ccc4c(c3)[C@](C)(C#N)COC4)c2)CC1` [Compound 21] were more than 1000 nM, 31%, 78% and more than 1 µM.
Taken in the same sequence, the figures for `C[C@@]1(F)COCc2c(F)cc(C(=O)NCc3cc4nc(-c5ccccc5)ccc4cn3)cc21` [Compound 428] were 500 to 1000 nM, 65%, 97% and 0.1 to 0.5 µM.
In the case of `COc1cc(-c2ccc3cnc(CNC(=O)c4ccc5c(c4)[C@](C)(C#N)COC5)cc3n2)nc(N2CCC2)n1` [Compound 442], at BRG-1, the IC50 is 500 to 1000 nM and the Emax amounted to 75%. In addition, on BRM, the “BRM Max % Inhibition” value amounted to 96% and the IC50 is less than 0.1 µM.
Taken in the same sequence, the figures for `CN(C)c1cccc(-c2ccc3cnc(CNC(=O)c4cnc5c(c4)[C@](F)(C(F)F)COC5)cc3n2)n1` [Compound 224] were less than 100 nM, 100%, 101% and less than 0.1 µM.
Taken in the same sequence, the figures for `C[C@@]1(C#N)COCc2ccc(C(=O)NCc3cc4nc(N5CCCCC5)ccc4cn3)cc21` [Compound 103] were more than 1000 nM, 71%, 94% and 0.1 to 0.5 µM.
The corresponding values for `C[C@@]1(C#N)COCc2ccc(C(=O)NCc3cc4nc(-c5ccccc5)sc4nn3)cc21` [Compound 242] are 500 to 1000 nM, 51%, 94% and 0.1 to 0.5 µM.
With `Cn1ccc2nc(-c3ccc4cnc(CNC(=O)c5ccc6c(c5)[C@](C)(C#N)COC6)cc4n3)sc2c1=O` [Compound 443], on BRG-1, the IC50 was 100 to 500 nM and the Emax was found to be 82%. In addition, at BRM, the “BRM Max % Inhibition” value turned out to be 96% and the IC50 was 0.1 to 0.5 µM.
Taken in the same sequence, the figures for `C[C@@]1(C#N)COCc2ccc(C(=O)NCc3cc4nc(-c5ccc(C(F)F)cc5)ccc4cn3)cc21` [Compound 519] were 100 to 500 nM, 90%, 96% and less than 0.1 µM.
The corresponding values for `C[C@@]1(C#N)COCc2ccc(C(=O)NCc3cc4nc(-c5cncc(N6CC[C@H](F)C6)n5)ccc4cn3)cc21` [Compound 311] are 100 to 500 nM, 95%, 99% and less than 0.1 µM.
Taken in the same sequence, the figures for `CCC(C)(O)c1cccc(-c2ccc3cnc(CNC(=O)c4ccc5c(c4)[C@](C)(F)COC5)cc3n2)n1` (some centres unmarked) [Compound 205] were 500 to 1000 nM, 52%, 91% and 0.1 to 0.5 µM.
As to `COc1cc(C2CCC2)ccc1-c1ccc2cnc(CNC(=O)c3ccc4c(c3)[C@](C)(C#N)COC4)cc2n1` [Compound 127], at BRG-1, the IC50 was 500 to 1000 nM and the Emax turned out to be 74%. In addition, at BRM, the “BRM Max % Inhibition” value came to 96% and the IC50 is less than 0.1 µM.
Taken in the same sequence, the figures for `COc1cc(C(F)F)ccc1-c1ccc2cnc(CNC(=O)c3ccc4c(c3)[C@](C)(C#N)COC4)cc2n1` [Compound 157] were 100 to 500 nM, 96%, 99% and less than 0.1 µM.
The corresponding values for `COc1cncc(-c2nc3cc(CNC(=O)c4ccc5c(c4)[C@](C)(C#N)COC5)ncc3s2)n1` [Compound 344] are 500 to 1000 nM, 57%, 94% and 0.1 to 0.5 µM.
Taken in the same sequence, the figures for `C[C@@]1(C#N)COCc2ccc(C(=O)NCc3cc4nc(-c5ccc(N6CCC6)cc5)ccc4cn3)cc21` [Compound 125] were 500 to 1000 nM, 86%, 98% and 0.1 to 0.5 µM.
In the case of `COc1cccc(/C=C/c2ccnc(CNC(=O)c3ccc4c(c3)[C@](C)(C#N)COC4)c2)c1` [Compound 38], at BRG-1, the IC50 was more than 1000 nM and the Emax was found to be 86%. Also, on BRM, the “BRM Max % Inhibition” value was 97% and the IC50 was less than 0.1 µM.
The corresponding values for `C[C@@]1(C#N)COCc2ccc(C(=O)NCc3cc(N4CC(n5ccc6ccccc65)C4)ccn3)cc21` [Compound 59] are 500 to 1000 nM, 56%, 93% and 0.1 to 0.5 µM.
For `O=C(NCc1cc2nc(-c3ccccc3)ccc2cn1)c1ccc2c(c1)[C@@](F)(C(F)F)COC2` [Compound 525], on BRG-1, the IC50 lay in the range of 500 to 1000 nM and the Emax is 69%. On BRM, the “BRM Max % Inhibition” value turned out to be 97% and the IC50 lay within 0.1 to 0.5 µM.
As for `COc1c(-c2ccc3cnc(CNC(=O)c4ccc5c(c4)[C@](C)(C#N)COC5)cc3n2)ccc2cnn(C)c12` [Compound 491], at BRG-1, the IC50 fell in the range of 500 to 1000 nM and the Emax came to 76%. At BRM, the “BRM Max % Inhibition” value is reported as 98% and the IC50 fell in the range of 0.1 to 0.5 µM.
Taken in the same sequence, the figures for `C[C@@]1(C#N)COCc2ccc(C(=O)NCc3cc4nc(-c5cncc(N6CCC6)n5)ccc4cn3)cc21` [Compound 497] were less than 100 nM, 97%, 100% and less than 0.1 µM.
Taken in the same sequence, the figures for `COC(=O)c1cccc(C#Cc2ccnc(CNC(=O)c3ccc4c(c3)[C@](C)(C#N)CO4)c2)c1` [Compound 37] were more than 1000 nM, 21%, 76% and more than 1 µM.
The corresponding values for `Cn1ccc2c(c1=O)CCN(c1ccnc(CNC(=O)c3ccc4c(c3)[C@](C)(C#N)COC4)c1)C2` [Compound 73] are more than 1000 nM, 44%, 84% and 0.1 to 0.5 µM.
Consider `C[C@@]1(C#N)COCc2ccc(C(=O)NCc3cc4nc(-c5cnn6c5OCCC6)ccc4cn3)cc21` [Compound 405], for which, at BRG-1, the IC50 is 500 to 1000 nM and the Emax came out at 55%. Also, on BRM, the “BRM Max % Inhibition” value is recorded as 85% and the IC50 fell in the range of 0.1 to 0.5 µM.
Taken in the same sequence, the figures for `Cn1c(C(F)F)cc2c(-c3ccc4cnc(CNC(=O)c5ccc6c(c5)[C@](C)(C#N)COC6)cc4n3)cccc21` [Compound 139] were 100 to 500 nM, 94%, 100% and less than 0.1 µM.
The corresponding values for `Cn1ccc2ccc(-c3ccc4cnc(CNC(=O)c5ccc6c(c5)[C@](C)(C#N)COC6)cc4n3)cc2c1=O` [Compound 452] are 100 to 500 nM, 98%, 97% and less than 0.1 µM.
